Assay results as given in US20250302795A1, “SMALL MOLECULE COMPOUNDS WITH NEGATIVE REGULATORY EFFECTS ON Nrf2 SIGNALING [sequence] AND THEIR POTENTIAL APPLICATIONS” (Beijing Hebabiz Biotechnology Co., Inc., priority 2022, published 2025).

What was measured:
Assay type in all cases: in vivo, rat
[1] = Body weight of rats, high-fat diet non-alcoholic steatohepatitis model; conditions: positive control group, in g (unit assumed)
Description: (§1) The normal control group was fed a standard diet for twelve weeks while the other groups were fed a high-fat diet consisting of 88% basal diet+10% lard+2% cholesterol for twelve weeks. After establishing the model, the drug groups received their respective treatments at a dosage of 10 ml/kg while the normal and model groups received an equal volume of 0.5% CMC-Na solution. The rats were provided with ad libitum access to water and food, while the animal chamber was maintained under controlled conditions of quietness, natural lighting, a temperature of 25±0.5° C., and a humidity level of 55±5%. The rats' body weights were measured once per week and recorded.
The rats were weighed weekly to monitor the fluctuations in body weight within each experimental group.

[2] = system: rats with nonalcoholic steatohepatitis induced by a high-fat diet and CCl4; experiment: Liver indices, non-alcoholic steatohepatitis model induced by high-fat diet and CCl4; conditions: positive control group
Description: (§2) The normal control group were fed a standard diet while the other groups were exclusively fed a high-fat diet consisting of 88% basal diet +10% lard +2% cholesterol for the initial six weeks. Starting from the seventh week, they received subcutaneous injections of a 30% CCl4 olive oil solution at a dosage of 0.2 ml/100 g behind their back twice per week for a total of four times. Once the model was successfully replicated, the corresponding drugs were administered orally (10 ml/kg) in each treatment group, and both the normal control group and the model group received equal volumes of a 0.5% CMC-Na solution once daily for ten consecutive weeks. Throughout the experimental period, the rats were provided with ad libitum access to food and water, while the animal chamber was maintained under controlled conditions of quietness, natural lighting, a temperature of 25±0.5° C., and a humidity level of 55±5%. The rats' body weights were measured once per week and recorded.
After blood sampling from the abdominal aorta of rats, the liver tissue was isolated, rinsed with normal saline solution, dried using filter paper, weighed accurately, and subsequently calculated the Liver indices: Liver indices=wet liver weight/body weight×100%.

[3] = system: rats with nonalcoholic steatohepatitis induced by a high-fat diet and CCl4; experiment: Four indices of serum hepatic fibrosis, high-fat diet and CCl4 model; conditions: positive control group
Description: as §2, with “Starting” for “The normal control group were fed a standard diet while the other groups were exclusively fed a high-fat diet consisting of 88% basal diet +10% lard +2% cholesterol for the initial six weeks. Starting”
(§3) At the end of the tenth week of administration, all rats underwent a 16-hour fasting period following their final administration and were intraperitoneally injected with a 20% ulinastatin solution (10 ml/kg) for anesthesia. Subsequently, blood samples were collected from the abdominal aorta and allowed to stand for one hour, and then centrifuged at 4° C. for fifteen minutes at a speed of 3000 r/min. Finally, the upper serum was stored at −80° C. Following the instructions provided with the biochemical index detection kit, levels of HDL-C, LDL-C, NEFA, AST, ALT, UA, TC, TG, PCIII, IV-C LN and HA in rat serum were determined.

[4] = system: rats with nonalcoholic steatohepatitis induced by a high-fat diet and CCl4; experiment: Liver histopathology (HE, oil red, Masson staining), high-fat diet and CCl4 model; conditions: positive control groups and NR218 high-, medium-, low-dose groups
Description: as §2
After collecting blood samples from the abdominal aorta of rats, the liver tissue was isolated and fixed in a 10% neutral formalin solution. Following standard procedures for embedding, sectioning, dewaxing, staining, clearing, and sealing, the liver tissues were subjected to HE (hematoxylin-eosin), Masson's trichrome, and oil red staining techniques respectively. […]

[5] = Body weight of rats, high-fat diet + CCl4 non-alcoholic steatohepatitis model; conditions: positive control group, in g (unit assumed)
Description: as §2
The weight changes of rats in each group were compared by conducting weekly weigh-ins after the experiment.

[6] = system: rats with nonalcoholic steatohepatitis induced by a high-fat diet and CCl4; experiment: Serum biochemical indices, high-fat diet and CCl4 model; conditions: end of tenth week of administration, positive control group; for HOMA-IR: FPG x FINS/22.5
Description: as §2, with “Starting” for “The normal control group were fed a standard diet while the other groups were exclusively fed a high-fat diet consisting of 88% basal diet +10% lard +2% cholesterol for the initial six weeks. Starting”
as §3
According to the kit instructions, the concentration of fasting plasma glucose (FPG) in serum was determined using colorimetry, while the concentration of fasting insulin (FINS) in serum was measured through radioimmunoassay.

[7] = system: rats with non-alcoholic steatohepatitis induced by high-fat diet; experiment: Liver indices, non-alcoholic steatohepatitis model induced by high-fat diet; conditions: for Liver Indices: high-fat diet model, positive control group
Description: as §1
(3) Liver indices was determined by dividing the wet weight of the liver by the body weight of rats and multiplying by 100%, after liver tissue was isolated, washed with normal saline, dried using filter paper, and weighed following blood sampling from the abdominal aorta. (4) HE staining and oil red staining were performed on liver tissue samples obtained from the abdominal aorta of rats. The tissue was fixed in 10% neutral formalin, followed by embedding, slicing, dewaxing, staining, transparency treatment, and sealing using routine procedures. Microscopic examination was conducted to observe the pathological changes in rat liver tissues across different groups. Additionally, the NASH-CRN scoring system was employed to assess NAS scores. (5) Detection of Proteins Associated with Non-Alcoholic Steatohepatitis

CC[C@H](C)C(=O)O[C@H]1C[C@@H](C)C=C2C=C[C@H](C)[C@H](CC[C@@H]3C[C@@H](O)CC(=O)O3)[C@H]21 [Lovastatin]
body weight ([1]; week 0 (pre-administration)): 196.21 ± 4.57 | body weight ([1]; week 1 (pre-administration)): 258.64 ± 9.56 | body weight ([1]; week 2 (pre-administration)): 315.91 ± 19.58 | body weight ([1]; week 3 (pre-administration)): 356.16 ± 26.94 | body weight ([1]; week 4 (pre-administration)): 392.60 ± 32.93 | body weight ([1]; week 5 (pre-administration)): 432.81 ± 38.14 | body weight ([1]; week 6 (pre-administration)): 464.35 ± 45.01 | body weight ([1]; week 7 (pre-administration)): 482.88 ± 44.36 | body weight ([1]; week 8 (pre-administration)): 503.37 ± 45.95 | body weight ([1]; week 9 (pre-administration)): 530.26 ± 48.68 | body weight ([1]; week 10 (pre-administration)): 548.47 ± 45.65 | body weight ([1]; week 11 (pre-administration)): 547.23 ± 54.49 | body weight ([1]; week 12 (pre-administration)): 543.06 ± 66.86 | body weight ([1]; week 13): 534.63 ± 62.63 | body weight ([1]; week 14): 542.19 ± 52.03 | body weight ([1]; week 15): 543.36 ± 47.44 | body weight ([1]; week 16): 547.25 ± 37.26 | body weight ([1]; week 17): 561.64 ± 53.62 | body weight ([1]; week 18): 593.39 ± 48.55 | body weight ([1]; week 19): 615.74 ± 52.23 | body weight ([1]; week 20): 600.22 ± 50.84 | Liver Indices [2]: 3.56 ± 0.49% | IV-C [3]: 15.59 ± 7.47 µg/L | PC-III [3]: 10.52 ± 2.34 µg/L | Oil red O staining of liver tissue (in words) [4]: significantly ameliorated steatosis severity and reduced lipid droplet content | body weight ([5]; week 1): 195.70 ± 6.24 | body weight ([5]; week 2): 253.01 ± 9.37 | body weight ([5]; week 3): 315.37 ± 15.71 | body weight ([5]; week 4): 368.78 ± 19.25 | body weight ([5]; week 5): 409.85 ± 24.64 | body weight ([5]; week 6): 439.81 ± 28.73 | body weight ([5]; week 7): 470.75 ± 34.51 | body weight ([5]; week 8): 491.21 ± 35.35 | body weight ([5]; week 9): 491.46 ± 34.37 | body weight ([5]; week 10): 503.05 ± 37.51 | body weight ([5]; week 11): 486.62 ± 44.00 | body weight ([5]; week 12): 506.22 ± 46.50 | body weight ([5]; week 13): 530.00 ± 54.43 | body weight ([5]; week 14): 531.16 ± 48.26 | body weight ([5]; week 15): 525.60 ± 53.49 | body weight ([5]; week 16): 539.63 ± 46.78 | body weight ([5]; week 17): 555.78 ± 49.24 | body weight ([5]; week 18): 561.12 ± 51.49 | HOMA-IR [6]: 5.50 | ALT ([6]; serum): 43.66 U/L | AST ([6]; serum): 69.18 U/L | HDL-C ([6]; serum): 1.31 mmol/L | LDL-C ([6]; serum): 1.20 mmol/L | NEFA ([6]; serum): 0.76 mmol/L | liver indices versus model group (in words) ([7]; NR218 at high, medium and low doses, P<0.01 or P<0.05): significant decrease compared to the model group | Liver Indices [7]: 3.23 ± 0.56 %

CC[C@H]1[C@@H](O)[C@@H]2[C@H](CC[C@]3(C)[C@@H]([C@H](C)CCC(=O)O)CC[C@@H]23)[C@@]2(C)CC[C@@H](O)C[C@@H]12 [Ocaliva, Obercholic acid]
body weight ([1]; week 0 (pre-administration)): 197.61 ± 4.50 | body weight ([1]; week 1 (pre-administration)): 257.27 ± 10.59 | body weight ([1]; week 2 (pre-administration)): 318.89 ± 11.61 | body weight ([1]; week 3 (pre-administration)): 362.58 ± 18.50 | body weight ([1]; week 4 (pre-administration)): 403.03 ± 23.75 | body weight ([1]; week 5 (pre-administration)): 439.43 ± 29.45 | body weight ([1]; week 6 (pre-administration)): 474.15 ± 35.23 | body weight ([1]; week 7 (pre-administration)): 492.08 ± 37.59 | body weight ([1]; week 8 (pre-administration)): 520.77 ± 41.63 | body weight ([1]; week 9 (pre-administration)): 548.10 ± 47.45 | body weight ([1]; week 10 (pre-administration)): 552.73 ± 51.34 | body weight ([1]; week 11 (pre-administration)): 552.52 ± 56.26 | body weight ([1]; week 12 (pre-administration)): 570.97 ± 53.36 | body weight ([1]; week 13): 552.25 ± 68.34 | body weight ([1]; week 14): 551.61 ± 63.47 | body weight ([1]; week 15): 559.94 ± 61.90 | body weight ([1]; week 16): 572.35 ± 60.86 | body weight ([1]; week 17): 573.51 ± 72.23 | body weight ([1]; week 18): 599.13 ± 55.71 | body weight ([1]; week 19): 615.97 ± 56.23 | body weight ([1]; week 20): 601.19 ± 60.01 | Liver Indices [2]: 3.57 ± 0.31% | HA [3]: 50.19 ± 17.94 µg/L | IV-C [3]: 15.40 ± 7.08 µg/L | LN [3]: 118.43 ± 39.88 µg/L | PC-III [3]: 10.82 ± 1.64 µg/L | body weight ([5]; week 1): 192.12 ± 5.16 | body weight ([5]; week 2): 251.85 ± 11.78 | body weight ([5]; week 3): 316.12 ± 16.31 | body weight ([5]; week 4): 359.50 ± 15.40 | body weight ([5]; week 5): 389.95 ± 30.78 | body weight ([5]; week 6): 432.14 ± 23.79 | body weight ([5]; week 7): 462.23 ± 28.00 | body weight ([5]; week 8): 487.97 ± 30.51 | body weight ([5]; week 9): 487.63 ± 39.07 | body weight ([5]; week 10): 505.41 ± 41.23 | body weight ([5]; week 11): 493.66 ± 55.42 | body weight ([5]; week 12): 509.99 ± 49.38 | body weight ([5]; week 13): 532.39 ± 48.08 | body weight ([5]; week 14): 532.75 ± 52.06 | body weight ([5]; week 15): 498.86 ± 46.37 | body weight ([5]; week 16): 493.95 ± 43.25 | body weight ([5]; week 17): 515.43 ± 41.21 | body weight ([5]; week 18): 525.15 ± 42.35 | HOMA-IR [6]: 4.90 | ALT ([6]; serum): 54.91 U/L | AST ([6]; serum): 62.32 U/L | HDL-C ([6]; serum): 1.30 mmol/L | LDL-C ([6]; serum): 1.29 mmol/L | NEFA ([6]; serum): 0.69 mmol/L | TC ([6]; serum): 1.76 mmol/L | TG ([6]; serum): 0.50 mmol/L | UA ([6]; serum): 106 µmol/L | Liver Indices [7]: 2.95 ± 0.68 %
